Literature values as cited in patent US9006270B2, “Polymorphs of (S)-pyrrolidine-1,2-dicarboxylic acid 2-amide 1-({4-methyl-5-[2-(2,2,2-trifluoro-1,1-dimethyl-ethyl)-pyridin-4-yl]-thiazol-2-yl}-amide” (Novartis AG, priority 2011, dated 2015).

Tested on: phosphatidylinositol 3-kinase (PI3K)
Conditions: described in WO 2010/029082

Cc1nc(NC(=O)N2CCC[C@H]2C(N)=O)sc1-c1ccnc(C(C)(C)C(F)(F)F)c1 [Compound I, (S)-pyrrolidine-1,2-dicarboxylic acid 2-amide 1-(4-methyl-5-[2-(2,2,2-trifluoro-1,1-dimethyl-ethyl)-pyridin-4-yl]-thiazol-2-yl)-amide]
activity against the phosphatidylinositol 3-kinase (PI3K): demonstrated activity
